# Test results taken from ChEMBL document CHEMBL5291721, “A preclinical secondary pharmacology resource illuminates target-adverse drug reaction associations of marketed drugs” (Nat Commun, 2023).
# Tests used:
# [1] = target: Gamma-aminobutyric acid receptor subunit alpha-1 (Rattus norvegicus, UniProt P62813)
# Estrogen receptor = target: T1, Estrogen receptor (Homo sapiens, UniProt P03372)
# T1 sequence (P03372 whole entry): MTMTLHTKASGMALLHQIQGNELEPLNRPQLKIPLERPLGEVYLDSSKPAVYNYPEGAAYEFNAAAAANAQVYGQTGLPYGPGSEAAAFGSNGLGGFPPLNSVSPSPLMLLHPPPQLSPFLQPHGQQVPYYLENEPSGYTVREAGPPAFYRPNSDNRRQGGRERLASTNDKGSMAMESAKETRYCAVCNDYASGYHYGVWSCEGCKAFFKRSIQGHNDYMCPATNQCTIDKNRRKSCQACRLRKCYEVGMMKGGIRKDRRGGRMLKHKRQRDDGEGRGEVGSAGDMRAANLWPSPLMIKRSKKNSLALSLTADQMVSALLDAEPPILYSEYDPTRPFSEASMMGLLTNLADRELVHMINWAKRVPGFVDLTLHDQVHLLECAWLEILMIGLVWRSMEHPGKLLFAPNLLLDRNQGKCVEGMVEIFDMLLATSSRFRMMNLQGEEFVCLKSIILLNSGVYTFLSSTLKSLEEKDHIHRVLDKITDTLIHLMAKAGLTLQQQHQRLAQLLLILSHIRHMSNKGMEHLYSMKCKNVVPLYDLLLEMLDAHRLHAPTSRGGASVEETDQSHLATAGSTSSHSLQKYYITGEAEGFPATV
# [2] = target: T2, Muscarinic acetylcholine receptor M1 (Homo sapiens, UniProt P11229); type: functional, cell-based
# T2 sequence (P11229 whole entry): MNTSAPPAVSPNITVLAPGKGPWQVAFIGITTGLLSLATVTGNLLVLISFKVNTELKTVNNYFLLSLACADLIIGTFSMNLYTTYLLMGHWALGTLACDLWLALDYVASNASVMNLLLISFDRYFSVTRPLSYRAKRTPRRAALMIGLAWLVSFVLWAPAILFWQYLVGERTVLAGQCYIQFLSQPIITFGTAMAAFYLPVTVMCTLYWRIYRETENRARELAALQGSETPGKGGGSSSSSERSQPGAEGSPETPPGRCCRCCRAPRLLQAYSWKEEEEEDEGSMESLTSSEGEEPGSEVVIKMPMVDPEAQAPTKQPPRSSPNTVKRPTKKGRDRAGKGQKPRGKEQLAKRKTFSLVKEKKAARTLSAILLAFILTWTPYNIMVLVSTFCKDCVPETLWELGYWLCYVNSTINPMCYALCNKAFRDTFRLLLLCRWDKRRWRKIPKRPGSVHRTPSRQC
# [3] = target: T3, Muscarinic acetylcholine receptor M2 (Homo sapiens, UniProt P08172); type: functional, cell-based
# T3 sequence (P08172 whole entry): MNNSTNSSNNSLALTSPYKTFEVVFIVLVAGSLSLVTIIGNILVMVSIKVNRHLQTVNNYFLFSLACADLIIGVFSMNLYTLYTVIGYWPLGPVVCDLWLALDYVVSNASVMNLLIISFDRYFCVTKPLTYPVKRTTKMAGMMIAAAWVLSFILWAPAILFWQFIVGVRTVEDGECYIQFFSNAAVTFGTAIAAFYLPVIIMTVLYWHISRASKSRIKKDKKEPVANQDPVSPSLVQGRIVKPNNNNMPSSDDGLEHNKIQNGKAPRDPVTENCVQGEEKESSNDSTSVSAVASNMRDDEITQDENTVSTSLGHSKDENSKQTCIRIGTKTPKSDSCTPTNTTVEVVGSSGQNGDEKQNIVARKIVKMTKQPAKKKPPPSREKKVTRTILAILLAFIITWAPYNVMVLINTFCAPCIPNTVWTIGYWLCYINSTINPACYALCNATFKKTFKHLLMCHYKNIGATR
# [4] = target: Beta-2 adrenergic receptor (Homo sapiens, UniProt P07550)
# Sequence of Beta-2 adrenergic receptor (P07550 whole entry): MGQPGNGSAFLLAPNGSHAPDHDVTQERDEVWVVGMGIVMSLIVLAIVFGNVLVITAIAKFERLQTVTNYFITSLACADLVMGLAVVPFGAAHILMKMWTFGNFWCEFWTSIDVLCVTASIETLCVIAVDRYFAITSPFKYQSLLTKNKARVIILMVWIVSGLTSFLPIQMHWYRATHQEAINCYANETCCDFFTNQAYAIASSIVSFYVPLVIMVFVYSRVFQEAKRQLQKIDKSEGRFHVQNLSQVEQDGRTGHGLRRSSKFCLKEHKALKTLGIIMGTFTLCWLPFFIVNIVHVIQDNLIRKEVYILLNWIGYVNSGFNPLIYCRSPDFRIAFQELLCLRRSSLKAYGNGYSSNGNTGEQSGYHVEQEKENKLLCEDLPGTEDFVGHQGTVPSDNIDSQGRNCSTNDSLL
# [5] = target: T3, Muscarinic acetylcholine receptor M2; type: functional, cell-based; remark: listed apart in the source
# D(1A) dopamine receptor = D(1A) dopamine receptor (Homo sapiens, UniProt P21728); type: functional, cell-based
# Sequence of D(1A) dopamine receptor (P21728 whole entry): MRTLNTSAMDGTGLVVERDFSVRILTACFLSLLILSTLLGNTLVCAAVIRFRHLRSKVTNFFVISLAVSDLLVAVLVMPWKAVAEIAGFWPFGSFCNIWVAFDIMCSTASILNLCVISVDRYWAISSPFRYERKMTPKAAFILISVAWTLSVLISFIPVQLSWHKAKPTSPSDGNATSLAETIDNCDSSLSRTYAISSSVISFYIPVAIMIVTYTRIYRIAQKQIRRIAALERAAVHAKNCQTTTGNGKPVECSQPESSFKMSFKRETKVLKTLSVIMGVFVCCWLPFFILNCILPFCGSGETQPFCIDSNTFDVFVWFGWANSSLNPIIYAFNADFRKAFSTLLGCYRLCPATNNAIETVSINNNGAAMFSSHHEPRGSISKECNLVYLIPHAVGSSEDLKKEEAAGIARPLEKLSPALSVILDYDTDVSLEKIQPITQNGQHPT
# [6] = target: Delta-type opioid receptor (Homo sapiens, UniProt P41143)
# Sequence of Delta-type opioid receptor (P41143 whole entry): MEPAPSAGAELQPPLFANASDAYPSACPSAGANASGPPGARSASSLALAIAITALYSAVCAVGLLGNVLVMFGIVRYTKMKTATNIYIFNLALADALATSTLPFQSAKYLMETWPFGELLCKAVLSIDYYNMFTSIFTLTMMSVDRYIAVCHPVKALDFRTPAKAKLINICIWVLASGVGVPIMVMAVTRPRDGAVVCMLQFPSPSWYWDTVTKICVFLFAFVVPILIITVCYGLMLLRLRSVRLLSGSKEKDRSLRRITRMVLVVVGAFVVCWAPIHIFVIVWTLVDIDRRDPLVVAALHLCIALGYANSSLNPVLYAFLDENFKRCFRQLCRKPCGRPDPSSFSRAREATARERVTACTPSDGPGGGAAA
# B2 bradykinin receptor = target: T4, B2 bradykinin receptor (Homo sapiens, UniProt P30411)
# T4 sequence (P30411 whole entry): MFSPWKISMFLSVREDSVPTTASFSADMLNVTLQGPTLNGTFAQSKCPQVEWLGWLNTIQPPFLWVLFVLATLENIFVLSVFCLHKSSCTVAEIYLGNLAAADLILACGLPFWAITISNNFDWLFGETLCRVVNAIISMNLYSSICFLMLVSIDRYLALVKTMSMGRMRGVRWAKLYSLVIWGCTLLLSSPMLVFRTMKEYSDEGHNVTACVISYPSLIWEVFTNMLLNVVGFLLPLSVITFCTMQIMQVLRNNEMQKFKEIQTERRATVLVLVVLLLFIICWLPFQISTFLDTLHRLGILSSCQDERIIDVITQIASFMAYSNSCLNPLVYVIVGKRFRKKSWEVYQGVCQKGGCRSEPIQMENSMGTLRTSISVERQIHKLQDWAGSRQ
# Motilin receptor = Motilin receptor (Homo sapiens, UniProt O43193)
# Sequence of Motilin receptor (O43193 whole entry): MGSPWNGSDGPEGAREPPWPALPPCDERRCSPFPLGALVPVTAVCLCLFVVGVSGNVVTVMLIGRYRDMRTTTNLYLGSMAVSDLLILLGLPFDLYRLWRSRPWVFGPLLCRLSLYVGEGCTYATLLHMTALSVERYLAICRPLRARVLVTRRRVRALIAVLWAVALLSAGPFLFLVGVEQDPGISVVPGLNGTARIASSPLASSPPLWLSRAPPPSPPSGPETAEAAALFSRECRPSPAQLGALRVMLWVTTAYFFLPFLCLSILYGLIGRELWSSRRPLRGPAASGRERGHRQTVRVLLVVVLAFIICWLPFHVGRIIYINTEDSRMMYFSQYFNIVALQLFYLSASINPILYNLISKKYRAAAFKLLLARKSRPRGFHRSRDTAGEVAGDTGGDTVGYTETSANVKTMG
# [7] = target: Sodium-dependent noradrenaline transporter (Homo sapiens, UniProt P23975)
# Sequence of Sodium-dependent noradrenaline transporter (P23975 whole entry): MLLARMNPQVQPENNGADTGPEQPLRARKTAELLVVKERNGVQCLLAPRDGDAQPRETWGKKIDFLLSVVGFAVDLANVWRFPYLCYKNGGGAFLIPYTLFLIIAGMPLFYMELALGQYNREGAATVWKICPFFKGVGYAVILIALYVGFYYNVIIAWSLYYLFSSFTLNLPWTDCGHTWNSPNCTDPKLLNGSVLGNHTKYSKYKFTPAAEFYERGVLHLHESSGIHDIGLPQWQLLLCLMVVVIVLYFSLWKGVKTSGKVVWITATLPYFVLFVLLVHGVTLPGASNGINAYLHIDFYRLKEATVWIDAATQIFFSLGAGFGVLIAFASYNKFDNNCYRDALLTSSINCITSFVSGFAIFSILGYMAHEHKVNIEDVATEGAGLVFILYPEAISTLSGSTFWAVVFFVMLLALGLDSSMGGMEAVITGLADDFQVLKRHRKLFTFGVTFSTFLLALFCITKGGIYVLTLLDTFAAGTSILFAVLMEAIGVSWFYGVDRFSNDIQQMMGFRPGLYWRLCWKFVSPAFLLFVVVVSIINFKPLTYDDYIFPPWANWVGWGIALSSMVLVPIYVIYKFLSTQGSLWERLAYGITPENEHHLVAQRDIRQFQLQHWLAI
# [8] = target: 3',5'-cyclic-AMP phosphodiesterase 4D (Homo sapiens, UniProt Q08499); type: functional
# Sequence of 3',5'-cyclic-AMP phosphodiesterase 4D (Q08499 whole entry): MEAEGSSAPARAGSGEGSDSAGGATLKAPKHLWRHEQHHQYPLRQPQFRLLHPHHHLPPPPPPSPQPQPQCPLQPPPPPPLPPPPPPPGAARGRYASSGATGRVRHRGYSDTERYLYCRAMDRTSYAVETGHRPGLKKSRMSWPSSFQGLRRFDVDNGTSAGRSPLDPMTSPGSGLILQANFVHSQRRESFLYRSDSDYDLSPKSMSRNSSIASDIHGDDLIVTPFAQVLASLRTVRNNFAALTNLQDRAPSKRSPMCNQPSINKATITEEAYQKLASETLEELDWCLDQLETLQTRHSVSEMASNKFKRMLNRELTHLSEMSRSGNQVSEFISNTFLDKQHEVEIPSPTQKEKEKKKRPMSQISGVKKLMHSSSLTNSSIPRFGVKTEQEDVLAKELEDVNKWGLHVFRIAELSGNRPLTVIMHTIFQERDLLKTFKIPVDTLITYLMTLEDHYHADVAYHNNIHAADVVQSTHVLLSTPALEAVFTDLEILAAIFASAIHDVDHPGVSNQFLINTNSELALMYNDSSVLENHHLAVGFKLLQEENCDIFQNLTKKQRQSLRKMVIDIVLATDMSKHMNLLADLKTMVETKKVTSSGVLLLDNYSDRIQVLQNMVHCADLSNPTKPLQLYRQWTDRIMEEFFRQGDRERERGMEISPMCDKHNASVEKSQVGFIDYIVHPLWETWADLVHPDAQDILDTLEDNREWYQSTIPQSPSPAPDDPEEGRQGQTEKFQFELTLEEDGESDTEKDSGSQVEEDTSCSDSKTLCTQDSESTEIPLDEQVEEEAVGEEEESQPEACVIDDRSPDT
# Histamine H2 receptor = Histamine H2 receptor (Homo sapiens, UniProt P25021); type: functional, cell-based
# Sequence of Histamine H2 receptor (P25021 whole entry): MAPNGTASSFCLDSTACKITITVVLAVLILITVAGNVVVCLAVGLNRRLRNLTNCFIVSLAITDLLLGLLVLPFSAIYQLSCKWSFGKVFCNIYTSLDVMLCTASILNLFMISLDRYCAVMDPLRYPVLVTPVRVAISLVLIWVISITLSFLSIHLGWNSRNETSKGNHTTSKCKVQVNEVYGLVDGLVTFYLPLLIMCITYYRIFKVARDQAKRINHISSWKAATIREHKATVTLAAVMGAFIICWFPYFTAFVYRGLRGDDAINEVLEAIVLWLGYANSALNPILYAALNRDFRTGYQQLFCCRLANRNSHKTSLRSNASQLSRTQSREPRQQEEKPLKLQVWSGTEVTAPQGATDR
# [9] = target: T5, Gastrin/cholecystokinin type B receptor (Homo sapiens, UniProt P32239)
# T5 sequence (P32239 whole entry): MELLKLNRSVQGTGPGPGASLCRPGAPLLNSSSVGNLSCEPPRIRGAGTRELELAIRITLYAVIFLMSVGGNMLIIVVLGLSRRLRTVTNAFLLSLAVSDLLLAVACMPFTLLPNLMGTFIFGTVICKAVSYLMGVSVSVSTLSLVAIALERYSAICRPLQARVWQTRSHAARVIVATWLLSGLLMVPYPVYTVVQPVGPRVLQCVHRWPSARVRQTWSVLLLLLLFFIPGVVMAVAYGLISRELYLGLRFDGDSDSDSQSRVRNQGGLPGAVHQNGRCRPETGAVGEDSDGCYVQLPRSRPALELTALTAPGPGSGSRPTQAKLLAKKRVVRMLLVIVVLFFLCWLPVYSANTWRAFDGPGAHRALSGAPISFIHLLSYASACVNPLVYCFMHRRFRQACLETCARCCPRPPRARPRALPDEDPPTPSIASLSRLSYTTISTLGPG
# Also: assay procedure not described here.
# Sequence of Gamma-aminobutyric acid receptor subunit alpha-1 (P62813 whole entry): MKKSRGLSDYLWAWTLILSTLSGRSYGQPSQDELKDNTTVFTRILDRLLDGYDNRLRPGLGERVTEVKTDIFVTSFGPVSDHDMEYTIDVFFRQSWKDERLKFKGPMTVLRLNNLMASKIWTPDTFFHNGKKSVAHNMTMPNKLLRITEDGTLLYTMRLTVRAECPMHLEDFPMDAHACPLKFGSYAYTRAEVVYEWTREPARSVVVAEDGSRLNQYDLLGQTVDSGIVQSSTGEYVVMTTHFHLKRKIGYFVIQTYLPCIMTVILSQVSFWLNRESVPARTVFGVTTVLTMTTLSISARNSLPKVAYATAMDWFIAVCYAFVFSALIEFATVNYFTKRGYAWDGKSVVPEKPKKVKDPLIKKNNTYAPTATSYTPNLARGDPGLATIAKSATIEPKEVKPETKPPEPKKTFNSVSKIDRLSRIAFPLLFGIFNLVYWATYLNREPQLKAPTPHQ
Structure (SMILES),AC50 [1] [µM],AC50 (Estrogen receptor) [µM],AC50 [2] [µM],other results
O=C(O)c1cc(/N=N/c2ccc(O)c(C(=O)O)c2)ccc1O [OLSALAZINE],> 30,> 30,> 30,
FC(F)(F)c1ccc(CNc2ccc(Cc3c[nH]c4ncc(Cl)cc34)cn2)cn1 [PEXIDARTINIB],> 30,> 30,> 30,
CC(C)C[C@H](NC(=O)CNC(=O)c1cc(Cl)ccc1Cl)B(O)O [IXAZOMIB],> 30,> 30,> 30,
O=C1/C(=C2\Nc3ccc(S(=O)(=O)O)cc3C2=O)Nc2ccc(S(=O)(=O)O)cc21 [INDIGOTINDISULFONATE],> 30,,> 30,
OC[C@H]1O[C@@H](c2ccc(F)c(Cc3cc4ccccc4s3)c2)[C@H](O)[C@@H](O)[C@@H]1O [IPRAGLIFLOZIN],> 30,> 30,> 30,
CCn1cc(C(=O)O)c(=O)c2cc3c(cc21)OCO3 [OXOLINIC ACID],> 30,,> 30,
CC[C@H](c1ccc(O)cc1)[C@@H](CC)c1ccc(O)cc1 [HEXESTROL],> 30,0.0252,22.8,
COc1cc2nc(N3CCN(C(=O)C4CCCO4)CC3)nc(N)c2cc1OC (stereo unspecified) [TERAZOSIN],> 30,> 30,,AC50 [3]: > 10 µM; AC50 [4]: > 10 µM; AC50 [5]: > 10 µM; AC50 (D(1A) dopamine receptor): > 10 µM; AC50 [6]: > 30 µM; AC50 (B2 bradykinin receptor): > 30 µM; AC50 (Motilin receptor): > 10 µM; AC50 [7]: > 10 µM; AC50 [8]: > 30 µM; AC50 (Histamine H2 receptor): > 10 µM; AC50 [9]: > 30 µM
CN1CCC(=C2c3ccccc3Sc3ccccc32)CC1 [PIMETHIXENE],> 30,> 30,> 30,
CCc1nc(C(N)=O)c(Nc2ccc(N3CCC(N4CCN(C)CC4)CC3)c(OC)c2)nc1NC1CCOCC1 [GILTERITINIB],> 30,> 30,> 30,
CC[C@H]1OC(=O)[C@H](C)C(=O)[C@H](C)[C@@H](O[C@@H]2O[C@H](C)C[C@H](N(C)C)[C@H]2O)[C@](C)(OC)C[C@@H](C)C(=O)[C@H](C)[C@H]2N(CCCCn3cnc(-c4cccnc4)c3)C(=O)O[C@]12C [TELITHROMYCIN],> 30,> 30,> 30,
N[C@@H](CO)C(=O)O [SERINE],> 30,,> 30,
C#C[C@]1(O)CC[C@H]2[C@@H]3CCC4=CC(=O)CC[C@@H]4[C@H]3C(=C)C[C@@]21CC [ETONOGESTREL],28,5.62,,AC50 (D(1A) dopamine receptor): > 30 µM; AC50 [6]: > 30 µM; AC50 [8]: > 30 µM; AC50 (Histamine H2 receptor): > 30 µM
OC[C@H]1O[C@@H](c2ccc(Cl)c(Cc3ccc(O[C@H]4CCOC4)cc3)c2)[C@H](O)[C@@H](O)[C@@H]1O [EMPAGLIFLOZIN],> 30,> 30,> 30,
CC(=O)Oc1cc(C(F)(F)F)ccc1C(=O)O [TRIFLUSAL],> 30,,> 30,
CNC(=O)Oc1cccc2ccccc12 [CARBARIL],> 30,> 30,> 30,
N#Cc1ccc2c(c1)N(CCCN1CCC(O)CC1)c1ccccc1S2 [PERICIAZINE],29.8,> 30,> 30,
OC[C@H]1O[C@@](CO)(O[C@H]2O[C@H](CO)[C@@H](O)[C@H](O)[C@H]2O)[C@@H](O)[C@@H]1O [SUCROSE],> 30,> 30,,AC50 [3]: > 30 µM; AC50 [5]: > 30 µM; AC50 (D(1A) dopamine receptor): > 30 µM; AC50 [6]: > 30 µM; AC50 (B2 bradykinin receptor): > 30 µM; AC50 (Motilin receptor): > 30 µM; AC50 [7]: > 30 µM; AC50 [8]: > 30 µM; AC50 (Histamine H2 receptor): > 30 µM; AC50 [9]: > 30 µM
C/C=C/C/C=C/CCC(=O)[C@H]1O[C@H]1C(N)=O [CERULENIN],> 30,> 30,> 30,
CCCC(CCC)C(=O)O [VALPROIC ACID],> 30,> 30,,AC50 [3]: > 10 µM; AC50 [4]: > 10 µM; AC50 [5]: > 10 µM; AC50 (D(1A) dopamine receptor): > 10 µM; AC50 [6]: > 30 µM; AC50 (B2 bradykinin receptor): > 30 µM; AC50 (Motilin receptor): > 10 µM; AC50 [7]: > 30 µM; AC50 [8]: > 30 µM; AC50 [9]: > 30 µM
CN1C(C(=O)Nc2ccccn2)=C(O)c2ccccc2S1(=O)=O [PIROXICAM],> 30,> 30,,AC50 [3]: > 10 µM; AC50 [4]: > 10 µM; AC50 [5]: > 10 µM; AC50 (D(1A) dopamine receptor): > 10 µM; AC50 [6]: > 30 µM; AC50 (B2 bradykinin receptor): > 10 µM; AC50 (Motilin receptor): > 10 µM; AC50 [7]: > 10 µM; AC50 [8]: > 30 µM; AC50 (Histamine H2 receptor): > 30 µM
CCOC(=O)c1c(C)cc2c(CO)n[nH]c(=O)c2c1C [OXAGRELATE],> 30,> 30,,
O=C(O)CO [GLYCOLIC ACID],> 30,> 30,,
CC[C@@]1(O)C(=O)OCc2c1cc1n(c2=O)Cc2cc3c([N+](=O)[O-])cccc3nc2-1 [RUBITECAN],> 30,> 30,,
C=CCN1CC[C@]23CCCC[C@H]2[C@H]1Cc1ccc(O)cc13 [LEVALLORPHAN],> 30,,> 30,
CC(C)(O)CNc1nc(Nc2ccnc(C(F)(F)F)c2)nc(-c2cccc(C(F)(F)F)n2)n1 [ENASIDENIB],> 30,> 30,> 30,
CC[C@H](C)C[C@H](C)CCCCCCCCC(=O)N[C@H]1C[C@@H](O)[C@@H](NCCN)NC(=O)[C@@H]2[C@@H](O)CCN2C(=O)[C@H]([C@H](O)CCN)NC(=O)[C@H]([C@H](O)[C@@H](O)c2ccc(O)cc2)NC(=O)[C@@H]2C[C@@H](O)CN2C(=O)[C@H]([C@@H](C)O)NC1=O [CASPOFUNGIN],> 30,23.1,> 30,
Nc1ccc(C(=O)Oc2ccccc2)c(O)c1 [PHENYL AMINOSALICYLATE],> 30,> 30,> 30,
